Experiments:
[1] = Compatibility test of sodium rabeprazole with additives (residual content by HPLC, visual coloring); type: physicochemical; settings: 1 week, cold place sample = 100%; for residual content of sodium rabeprazole, 40° C.-75% RH: 40° C. 75% relative humidity
Procedure: 50 mg sodium rabeprazole and 450 mg additives shown in the table below were mixed in a mortar. The mixture was introduced into a transparent glass vial and stored in a cold place or at 60° C. or 40° C. under 75% relative humidity for 1 week and their content was determined by high performance liquid chromatography. Assuming that the content of the sample stored in the cold place is 100%, the degrees of the residual content under the respective conditions are shown in Tables 1 through 3. Further, their coloring changes were visually evaluated. The sodium rabeprazole used was amorphous in Table land crystalline in Tables 2 and 3. In Table 1, low-substituted hydroxypropyl cellulose (expressed as L-HPC) used as a disintegrating agent in addition to amorphous sodium rabeprazole was blended in the control; in Table 2, a sample further incorporating aluminum hydroxide (expressed as Al(OH) 3 in the table) i.e. an alkaline inorganic salt used as an antacid agent was used; and in Table 3, a sample incorporating polyvinyl pyrrolidone (expressed as PVP in the table) was used as a binder.

[2] = Amount of peroxide in crospovidone mixed with sodium sulfite (Japanese Pharmacopoeia test method); type: physicochemical
Procedure: Further, 1 g crospovidone containing 201 ppm peroxide was accurately taken, and sodium sulfite (amounts: 4 levels i.e. no addition, 0.02%, 0.05% and 0.10%) was added thereto and mixed well, and the amount of the peroxide in the mixture was determined according to a test method described in the Japanese Pharmacopoeia.

[3] = Table 1, amorphous sodium rabeprazole 50 mg + 450 mg additive
[4] = Table 2, crystalline sodium rabeprazole 50 mg + 450 mg additive
[5] = Table 3, crystalline sodium rabeprazole 50 mg + 450 mg additive

Compound: COCCCOc1ccnc(C[S+]([O-])c2nc3ccccc3[nH]2)c1C (stereo not drawn) [sodium rabeprazole (amorphous), sodium rabeprazole]
- residual content of sodium rabeprazole, 40° C.-75% RH [1, 3]: 93.9%
- residual content of sodium rabeprazole, 60° C. [1, 3]: 99.1%

Compound: COCCCOc1ccnc(C[S+]([O-])c2nc3ccccc3[nH]2)c1C (stereo not drawn) [sodium rabeprazole (crystalline), sodium rabeprazole]
- residual content of sodium rabeprazole, 40° C.-75% RH [1, 4]: 91.8%
- residual content of sodium rabeprazole, 60° C. [1, 4]: 99.8%
- residual content of sodium rabeprazole, 40° C.-75% RH [1, 5]: 86.9%
- residual content of sodium rabeprazole, 60° C. [1, 5]: 97.3%

Compound: O=S([O-])[O-].[Na+].[Na+] [sodium sulfite]
- amount of the peroxide in the composition ([2]; 0.02% sodium sulfite added to 1 g crospovidone containing 201 ppm peroxide): 184 ppm
- amount of the peroxide in the composition ([2]; 0.05% sodium sulfite added to 1 g crospovidone containing 201 ppm peroxide): 108 ppm
- amount of the peroxide in the composition ([2]; 0.10% sodium sulfite added to 1 g crospovidone containing 201 ppm peroxide): 0 ppm

Source: patent US20020039597A1, “STABILIZED COMPOSITIONS CONTAINING BENZIMIDAZOLE-TYPE COMPOUNDS” (priority 1998, published 2002)
